Laboratory results: ChEMBL document CHEMBL1136964, “Nicotinic agonist binding site mapped by methionine- and tyrosine-scanning coupled with azidochloropyridinyl photoaffinity labeling” (J Med Chem, 2009)

Key:
Type in all cases: cell-based
HEK293S [1] = experiment: Binding affinity to Aplysia californica AchBP I106M, M116L, Y195F mutant expressed in HEK293S cells assessed as specific photoincorporation at 46 pmol by scintillation counting relative to wild type
HEK293S [2] = experiment: Binding affinity to Aplysia californica AchBP I118M, M116L, Y195F mutant expressed in HEK293S cells assessed as specific photoincorporation at 46 pmol by scintillation counting
HEK293S [3] = experiment: Binding affinity to Aplysia californica AchBP A107M, M116L, Y195F mutant expressed in HEK293S cells assessed as specific photoincorporation at 46 pmol by scintillation counting relative to wild type
HEK293S [4] = experiment: Binding affinity to Aplysia californica AchBP I118M, M116L, Y195F mutant expressed in HEK293S cells assessed as specific photoincorporation at 46 pmol by scintillation counting relative to wild type
[5] = Binding affinity to Aplysia californica AchBP A107M, M116L mutant expressed in HEK293S cells by scintillation proximity assay
[6] = Binding affinity to Aplysia californica AchBP M116Y, Y195F mutant expressed in HEK293S cells by scintillation proximity assay
HEK293S [7] = experiment: Binding affinity to Aplysia californica AchBP I118M, M116L mutant expressed in HEK293S cells assessed as specific photoincorporation at 46 pmol by scintillation counting relative to wild type
HEK293S [8] = experiment: Binding affinity to Aplysia californica AchBP M116L,Y195F mutant expressed in HEK293S cells assessed as specific photoincorporation at 46 pmol by scintillation counting relative to wild type
HEK293S [9] = experiment: Binding affinity to Aplysia californica AchBP A107M mutant expressed in HEK293S cells assessed as specific photoincorporation at 46 pmol by scintillation counting
HEK293S [10] = experiment: Binding affinity to Aplysia californica AchBP M116L mutant expressed in HEK293S cells assessed as specific photoincorporation at 46 pmol by scintillation counting
[11] = Binding affinity to Aplysia californica AchBP V108M, M116L mutant expressed in HEK293S cells by scintillation proximity assay
[12] = Binding affinity to Aplysia californica AchBP M116Y mutant expressed in HEK293S cells by scintillation proximity assay
HEK293S [13] = experiment: Binding affinity to Aplysia californica AchBP S114M, M116L mutant expressed in HEK293S cells assessed as specific photoincorporation at 46 pmol by scintillation counting relative to wild type
HEK293S [14] = experiment: Binding affinity to Aplysia californica AchBP A107M mutant expressed in HEK293S cells assessed as specific photoincorporation at 46 pmol by scintillation counting relative to wild type
HEK293S [15] = experiment: Binding affinity to Aplysia californica AchBP S114M, M116L mutant expressed in HEK293S cells assessed as specific photoincorporation at 46 pmol by scintillation counting
[16] = Binding affinity to Aplysia californica AchBP I106M, M116L mutant expressed in HEK293S cells by scintillation proximity assay
[17] = Binding affinity to Aplysia californica AchBP S114M, M116L mutant expressed in HEK293S cells by scintillation proximity assay
HEK293S [18] = experiment: Binding affinity to Aplysia californica AchBP M116L mutant expressed in HEK293S cells assessed as specific photoincorporation at 46 pmol by scintillation counting relative to wild type
HEK293S [19] = experiment: Binding affinity to Aplysia californica AchBP I118M, M116L mutant expressed in HEK293S cells assessed as specific photoincorporation at 46 pmol by scintillation counting
[20] = Binding affinity to Aplysia californica AchBP A107M, M116L, Y195F mutant expressed in HEK293S cells by scintillation proximity assay
[21] = Binding affinity to Aplysia californica AchBP V108M mutant expressed in HEK293S cells by scintillation proximity assay
HEK293S [22] = experiment: Binding affinity to Aplysia californica AchBP M116Y, Y195F mutant expressed in HEK293S cells assessed as specific photoincorporation at 46 pmol by scintillation counting relative to wild type
[23] = Binding affinity to wild type Aplysia californica AchBP expressed in HEK293S cells by scintillation proximity assay
HEK293S [24] = experiment: Binding affinity to Aplysia californica AchBP I106M, M116L mutant expressed in HEK293S cells assessed as specific photoincorporation at 46 pmol by scintillation counting
HEK293S [25] = experiment: Binding affinity to Aplysia californica AchBP M116Y mutant expressed in HEK293S cells assessed as specific photoincorporation at 46 pmol by scintillation counting relative to wild type
HEK293S [26] = experiment: Binding affinity to Aplysia californica AchBP V108M mutant expressed in HEK293S cells assessed as specific photoincorporation at 46 pmol by scintillation counting
HEK293S [27] = experiment: Binding affinity to Aplysia californica AchBP M116Y, Y195F mutant expressed in HEK293S cells assessed as specific photoincorporation at 46 pmol by scintillation counting
HEK293S [28] = experiment: Binding affinity to Aplysia californica AchBP M116Y mutant expressed in HEK293S cells assessed as specific photoincorporation at 46 pmol by scintillation counting
HEK293S [29] = experiment: Binding affinity to Aplysia californica AchBP A107M, M116L mutant expressed in HEK293S cells assessed as specific photoincorporation at 46 pmol by scintillation counting relative to wild type
HEK293S [30] = experiment: Binding affinity to Aplysia californica AchBP V108M mutant expressed in HEK293S cells assessed as specific photoincorporation at 46 pmol by scintillation counting relative to wild type
HEK293S [31] = experiment: Binding affinity to Aplysia californica AchBP V108M, M116L mutant expressed in HEK293S cells assessed as specific photoincorporation at 46 pmol by scintillation counting
[32] = Binding affinity to Aplysia californica AchBP S114M mutant expressed in HEK293S cells by scintillation proximity assay
[33] = Binding affinity to Aplysia californica AchBP S114M, M116L, Y195F mutant expressed in HEK293S cells by scintillation proximity assay
HEK293S [34] = experiment: Binding affinity to Aplysia californica AchBP V108M, M116L, Y195F mutant expressed in HEK293S cells assessed as specific photoincorporation at 46 pmol by scintillation counting relative to wild type
HEK293S [35] = experiment: Binding affinity to Aplysia californica AchBP I106M, M116L mutant expressed in HEK293S cells assessed as specific photoincorporation at 46 pmol by scintillation counting relative to wild type
HEK293S [36] = experiment: Binding affinity to Aplysia californica AchBP S114M, M116L, Y195F mutant expressed in HEK293S cells assessed as specific photoincorporation at 46 pmol by scintillation counting
[37] = Binding affinity to Aplysia californica AchBP I118M mutant expressed in HEK293S cells by scintillation proximity assay

Clc1ccc(C2CC3CCC2N3)cn1 (racemic) [EPIBATIDINE]
Activity (HEK293S [1]): 13%
Activity (HEK293S [2]): 4.7%
Activity (HEK293S [3]): 13%
Activity (HEK293S [4]): 16%
Kd [5]: 0.0075 µM
Kd [6]: 0.115 µM
Activity (HEK293S [7]): 55%
Activity (HEK293S [8]): 6.9%
Activity (HEK293S [9]): 27%
Activity (HEK293S [10]): 35%
Kd [11]: 0.0029 µM
Kd [12]: 0.057 µM
Activity (HEK293S [13]): 66%
Activity (HEK293S [14]): 93%
Activity (HEK293S [15]): 19%
Kd [16]: 0.012 µM
Kd [17]: 0.012 µM
Activity (HEK293S [18]): 121%
Activity (HEK293S [19]): 16%
Kd [20]: 0.025 µM
Kd [21]: 0.0076 µM
Activity (HEK293S [22]): 30%
Kd [23]: 0.0086 µM
Activity (HEK293S [24]): 26%
Activity (HEK293S [25]): 59%
Activity (HEK293S [26]): 9.5%
Activity (HEK293S [27]): 8.7%
Activity (HEK293S [28]): 17%
Activity (HEK293S [29]): 100%
Activity (HEK293S [30]): 33%
Activity (HEK293S [31]): 8.1%
Kd [32]: 0.016 µM
Kd [33]: 0.024 µM
Activity (HEK293S [34]): 0%
Activity (HEK293S [35]): 90%
Activity (HEK293S [36]): 3.9%
Kd [37]: 0.01 µM
